Laboratory results published in patent publication US9416128B2, “Fused heterocyclic compounds as ion channel modulators” (Gilead Sciences, Inc., priority 2013, dated 2016).

Tests used:
hNaV1.2 (SCN2A) = biological target: T1, hNaV1.2 (SCN2A) (Homo sapiens, UniProt Q99250); assay: Use-dependent inhibition of the CNS NaV1.2 sodium channel; assay type: cell-based; details: HEK-293, % inhibition, 25 Hz; for inhibition at 1 µM: use-dependent block at 1 uM, read-out: Nav1.2 UDB 25 Hz 1 uM; for inhibition at 10 µM: use-dependent block at 10 uM, read-out: Nav1.2 UDB 25 Hz 10 uM
T1 construct: expressed in transfected cells
T1 sequence (Q99250 whole entry): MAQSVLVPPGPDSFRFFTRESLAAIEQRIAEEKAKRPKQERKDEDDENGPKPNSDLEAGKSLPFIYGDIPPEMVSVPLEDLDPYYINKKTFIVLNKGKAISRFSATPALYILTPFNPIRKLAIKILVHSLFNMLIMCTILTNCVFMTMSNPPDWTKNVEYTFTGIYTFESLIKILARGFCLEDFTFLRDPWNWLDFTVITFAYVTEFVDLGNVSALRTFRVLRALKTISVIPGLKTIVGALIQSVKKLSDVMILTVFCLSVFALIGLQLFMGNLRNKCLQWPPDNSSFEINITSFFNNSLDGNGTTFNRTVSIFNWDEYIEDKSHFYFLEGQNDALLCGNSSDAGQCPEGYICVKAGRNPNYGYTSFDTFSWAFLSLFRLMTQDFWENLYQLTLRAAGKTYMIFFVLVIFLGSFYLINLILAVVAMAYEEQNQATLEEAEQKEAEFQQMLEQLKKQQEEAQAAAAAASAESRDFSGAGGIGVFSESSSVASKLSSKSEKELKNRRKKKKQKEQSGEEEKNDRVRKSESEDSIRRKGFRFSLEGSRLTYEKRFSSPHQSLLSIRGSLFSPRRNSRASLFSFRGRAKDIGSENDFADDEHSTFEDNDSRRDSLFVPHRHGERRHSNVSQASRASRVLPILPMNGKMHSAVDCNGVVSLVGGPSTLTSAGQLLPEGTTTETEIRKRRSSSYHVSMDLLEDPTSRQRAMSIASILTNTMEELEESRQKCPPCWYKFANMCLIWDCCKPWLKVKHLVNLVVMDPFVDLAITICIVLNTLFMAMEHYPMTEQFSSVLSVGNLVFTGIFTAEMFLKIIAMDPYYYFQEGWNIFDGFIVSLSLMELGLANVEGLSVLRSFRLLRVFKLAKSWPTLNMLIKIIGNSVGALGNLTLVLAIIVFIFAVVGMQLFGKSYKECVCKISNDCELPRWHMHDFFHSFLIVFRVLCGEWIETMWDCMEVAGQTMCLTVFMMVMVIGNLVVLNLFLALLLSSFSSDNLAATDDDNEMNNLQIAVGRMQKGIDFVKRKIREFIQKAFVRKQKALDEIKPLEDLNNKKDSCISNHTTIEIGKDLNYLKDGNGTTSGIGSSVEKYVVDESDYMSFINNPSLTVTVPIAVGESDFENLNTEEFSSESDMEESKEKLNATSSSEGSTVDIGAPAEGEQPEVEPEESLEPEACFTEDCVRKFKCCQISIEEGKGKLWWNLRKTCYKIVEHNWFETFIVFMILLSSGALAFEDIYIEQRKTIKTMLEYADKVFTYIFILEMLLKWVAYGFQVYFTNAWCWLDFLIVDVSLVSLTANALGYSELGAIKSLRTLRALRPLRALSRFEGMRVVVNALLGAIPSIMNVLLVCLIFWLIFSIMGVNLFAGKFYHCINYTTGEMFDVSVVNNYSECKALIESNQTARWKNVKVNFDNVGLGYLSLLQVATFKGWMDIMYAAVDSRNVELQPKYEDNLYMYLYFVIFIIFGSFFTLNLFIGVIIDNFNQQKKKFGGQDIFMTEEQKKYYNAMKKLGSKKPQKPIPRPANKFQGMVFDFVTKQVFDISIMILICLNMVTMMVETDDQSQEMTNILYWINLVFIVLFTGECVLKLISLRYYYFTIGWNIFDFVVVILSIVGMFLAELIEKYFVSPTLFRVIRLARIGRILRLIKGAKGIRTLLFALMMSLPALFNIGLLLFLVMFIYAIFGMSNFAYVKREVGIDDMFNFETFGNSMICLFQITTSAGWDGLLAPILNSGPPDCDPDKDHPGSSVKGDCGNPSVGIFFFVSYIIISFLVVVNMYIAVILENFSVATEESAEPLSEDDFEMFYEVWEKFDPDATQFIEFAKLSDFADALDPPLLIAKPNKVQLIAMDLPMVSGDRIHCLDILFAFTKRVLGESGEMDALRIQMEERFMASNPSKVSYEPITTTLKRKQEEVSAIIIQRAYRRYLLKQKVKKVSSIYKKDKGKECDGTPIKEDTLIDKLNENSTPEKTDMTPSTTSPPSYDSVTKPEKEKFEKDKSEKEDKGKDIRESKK
T1 sequence (Q07699 19-218 partner): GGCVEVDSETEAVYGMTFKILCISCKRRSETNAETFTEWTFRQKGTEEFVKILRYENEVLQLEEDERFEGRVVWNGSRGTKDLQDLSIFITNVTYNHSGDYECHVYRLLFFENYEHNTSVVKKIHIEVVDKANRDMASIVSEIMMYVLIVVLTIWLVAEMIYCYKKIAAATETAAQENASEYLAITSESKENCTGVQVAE
T1 sequence (O60939 30-215 partner): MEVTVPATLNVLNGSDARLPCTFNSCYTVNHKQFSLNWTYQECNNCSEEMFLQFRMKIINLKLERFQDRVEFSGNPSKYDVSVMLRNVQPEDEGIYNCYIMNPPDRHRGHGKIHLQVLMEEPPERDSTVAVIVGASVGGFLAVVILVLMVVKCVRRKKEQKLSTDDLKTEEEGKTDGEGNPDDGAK
Protocol: HEK-293 cells stably expressing wild-type (WT) hNaV1.2 (SCN2A NCBI # NM_021007.2, SCN1B NCBI # NM_001037.4, SCN2B NCBI # NM_004588.2) were used to record INa. Cells are maintained with standard tissue culture procedures and stable channel expression is maintained with 800 ug/mL G418 and 3 ug/mL Puromycin in the culture medium. Unless otherwise noted, all reagents are purchased from Sigma-Aldrich (St Louis, Mo., U.S.A.).
Assays measuring Use-Dependent Block (UDB) of NaV1.2 are performed on an automated electrophysiology platform, QPatch 16X or QPatch HT (Sophion Bioscience, Copenhagen, Denmark), using the whole cell patch clamp technique to measure currents through the cell membrane. Series resistance compensation is set to 100% and series resistance and whole-cell compensation are performed automatically. Currents stored in the Sophion Bioscience Oracle database (Sophion Bioscience, Copenhagen, Denmark). Analysis is performed using QPatch Assay software and data are compiled in Excel 2010 (Microsoft, Seattle, Wash., U.S.A.). The internal (pipette) solution consists of (in mM) 105 CsF, 10 NaF, 20 CsCl, 2 EGTA, 10 HEPES, 10 Dextrose with a pH of 7.35 and osmolarity of 300 mOsmol/kg. The external (bath) solution contains in (mM): 145 NaCl, 4 KCl, 1.8 CaCl2, 1 MgCl2, 10 dextrose, 10 HEPES, with a pH of 7.35 and osmolarity of 310 mOsmol/kg. Experiments are carried out at 23-25° C.
Compound stocks are routinely made by the Gilead Sample Bank in vials to 10 mM in dimethyl sulfoxide (DMSO). In some cases, when compounds are not soluble in DMSO, they are made in 100% ethanol. Stocks are sonicated as necessary. […]
Cells are allowed to stabilize for 10 min after establishment of the whole-cell configuration before current is measured. The test compound is applied 2 times at 60 second intervals. After the second compound addition, a 200 second wait period was imposed to allow for equilibration. Leak currents are subtracted by using an online P/4 procedure and all currents are low-pass Bessel filtered at 5 kHz and digitized at […].
Results are presented as mean percentage inhibition.
Use-dependent block of NaV1.2 peak current is measured during pulse number 20 of a voltage pulse train (0 mV, 20 ms, 20 pulses, 25 Hz) from a holding potential of −120 mV.
Currents are normalized to the peak current recorded in response to the first pulse in each frequency train. The voltage protocol for UDB was performed in the absence and presence of compound and percentage inhibition was calculated with respect to the compound free condition.
Data analysis is performed using QPatch Assay Software 4.0, and Excel 2002 (Microsoft, Seattle, Wash., U.S.A.).

[1] = biological target: wild-type human cardiac sodium channel, hNaV 1.5 (Late INa) (Homo sapiens, UniProt Q14524); assay: Late INa screening assay (whole cell patch clamp, QPatch, Tefluthrin-induced late current); assay type: cell-based; details: HEK293, % inhibition (percent block of late INa) at 1 uM; HEK293 hNaV1.5; 10 μM Tefluthrin; read-out: Nav1.5 Late INa 1 uM
Chain of wild-type human cardiac sodium channel, hNaV 1.5 (Late INa) (Q14524 whole entry): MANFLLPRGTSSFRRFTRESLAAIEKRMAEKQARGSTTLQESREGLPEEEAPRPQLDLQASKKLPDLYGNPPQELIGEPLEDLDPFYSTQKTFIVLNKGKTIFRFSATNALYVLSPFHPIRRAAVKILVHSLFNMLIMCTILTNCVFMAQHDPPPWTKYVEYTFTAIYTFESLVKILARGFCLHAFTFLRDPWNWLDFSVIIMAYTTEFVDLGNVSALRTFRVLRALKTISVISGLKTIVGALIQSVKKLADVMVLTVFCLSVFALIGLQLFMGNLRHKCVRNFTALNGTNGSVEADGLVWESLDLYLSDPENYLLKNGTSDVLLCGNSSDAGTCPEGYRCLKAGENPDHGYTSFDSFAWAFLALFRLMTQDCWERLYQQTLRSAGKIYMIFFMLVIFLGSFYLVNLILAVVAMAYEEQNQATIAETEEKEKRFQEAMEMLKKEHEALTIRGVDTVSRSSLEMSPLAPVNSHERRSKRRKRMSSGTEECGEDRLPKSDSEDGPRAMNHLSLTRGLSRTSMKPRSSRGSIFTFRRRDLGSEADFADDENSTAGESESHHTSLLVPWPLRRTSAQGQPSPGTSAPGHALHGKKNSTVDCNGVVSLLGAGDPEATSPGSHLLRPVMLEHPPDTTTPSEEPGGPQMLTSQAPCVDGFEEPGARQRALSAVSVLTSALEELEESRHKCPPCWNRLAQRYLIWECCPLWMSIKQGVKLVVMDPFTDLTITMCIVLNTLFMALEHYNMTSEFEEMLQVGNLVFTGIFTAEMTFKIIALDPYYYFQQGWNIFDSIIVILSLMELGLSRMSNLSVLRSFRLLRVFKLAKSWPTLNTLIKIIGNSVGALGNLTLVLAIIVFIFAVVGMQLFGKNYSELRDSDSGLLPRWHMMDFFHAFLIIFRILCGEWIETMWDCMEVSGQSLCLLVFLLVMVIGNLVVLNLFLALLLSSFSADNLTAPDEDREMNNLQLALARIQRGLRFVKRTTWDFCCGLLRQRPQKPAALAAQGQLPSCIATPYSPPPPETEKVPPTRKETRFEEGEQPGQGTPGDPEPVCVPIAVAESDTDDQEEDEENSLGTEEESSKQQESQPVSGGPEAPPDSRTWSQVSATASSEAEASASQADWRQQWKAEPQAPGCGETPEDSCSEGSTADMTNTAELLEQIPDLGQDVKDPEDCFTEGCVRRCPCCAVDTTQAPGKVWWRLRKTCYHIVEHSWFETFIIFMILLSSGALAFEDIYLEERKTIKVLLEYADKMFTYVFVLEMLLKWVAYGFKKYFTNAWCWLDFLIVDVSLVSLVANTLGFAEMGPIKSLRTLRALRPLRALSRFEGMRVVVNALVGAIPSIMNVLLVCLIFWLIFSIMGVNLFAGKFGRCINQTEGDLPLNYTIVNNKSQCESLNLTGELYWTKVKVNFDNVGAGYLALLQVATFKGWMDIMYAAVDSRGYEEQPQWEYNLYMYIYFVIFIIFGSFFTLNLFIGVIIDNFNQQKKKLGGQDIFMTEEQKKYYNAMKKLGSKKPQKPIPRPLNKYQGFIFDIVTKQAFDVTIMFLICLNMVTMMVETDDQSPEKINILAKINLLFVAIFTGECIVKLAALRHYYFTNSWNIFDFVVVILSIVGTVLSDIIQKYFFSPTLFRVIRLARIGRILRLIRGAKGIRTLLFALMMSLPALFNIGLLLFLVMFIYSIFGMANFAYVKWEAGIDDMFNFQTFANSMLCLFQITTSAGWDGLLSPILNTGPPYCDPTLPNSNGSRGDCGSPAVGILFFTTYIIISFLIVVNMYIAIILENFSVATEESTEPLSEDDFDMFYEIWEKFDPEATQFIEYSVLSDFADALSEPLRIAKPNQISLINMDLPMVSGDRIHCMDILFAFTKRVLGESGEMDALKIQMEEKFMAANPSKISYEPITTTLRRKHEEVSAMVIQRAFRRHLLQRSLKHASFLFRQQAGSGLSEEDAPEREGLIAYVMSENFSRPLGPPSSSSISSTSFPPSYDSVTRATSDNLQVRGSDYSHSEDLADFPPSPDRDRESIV
Protocol: The cardiac late sodium current (Late INa) and peak sodium current (Peak INa) assays are performed on an automated electrophysiology platform, QPatch 16X or QPatch HT (Sophion Bioscience, Copenhagen, Denmark) using the whole cell patch clamp technique to measure currents through the cell membrane. The assay uses an HEK293 (human embryonic kidney) cell line heterologously expressing the wild-type human cardiac sodium channel, hNaV 1.5, purchased from Millipore (Billerica, Mass.). No beta subunits were coexpressed with the Na channel alpha subunit. Cells are maintained with standard tissue culture procedures and stable channel expression is maintained with 400 μg/mL Geneticin in the culture medium. Experiments are carried out at 23-25° C.
For both the Late INa and Peak INa assays, series resistance compensation is set to 100% and series resistance and whole-cell compensation are performed automatically. Currents are digitized at 25 kHz and low-pass filtered at 5 kHz and stored in the Sophion Bioscience Oracle database (Sophion Bioscience, Copenhagen, Denmark). Analysis is performed using QPatch Assay software and data are compiled in Excel 2010 (Microsoft, Seattle, Wash., U.S.A.).
Compound stocks are routinely made by the Gilead Sample Bank in vials to 10 mM in dimethyl sulfoxide (DMSO). In some cases, when compounds are not soluble in DMSO, they are made in 100% ethanol. Stocks are sonicated as necessary. The extracellular solution for screening Late INa is composed of: 140 mM NaCl, 4 mM KCl, 1.8 mM CaCl2, 1 mM MgCl2, 10 mM HEPES and 10 mM Dextrose with pH adjusted to 7.35 using NaOH. The intracellular solution contains: 105 mM CsF, 20 mM CsCl, 10 NaF, 2 mM EGTA, 10 mM HEPES and 10 mM Dextrose with pH adjusted to 7.35 with CsOH. Compounds are diluted in extracellular solution using a MicroLab Nimbus (Hamilton Robotics, Reno, Nev.) to between 0.3 and 3 μM in glass vials and transferred to glass well plates before robotic addition to the cells. The 0 mM Na extracellular solution (0Na-ECF) used at the end of each experiment for the Late INa and Peak INa assays to measure baseline current contains: 140 Choline-Cl; 4 mM KCl, 1.8 mM CaCl2; 1 mM MgCl2; 10 mM HEPES and 10 mM Dextrose with pH was adjusted to 7.35 with CsOH.
For the Late INa assay, sodium channels are activated every 10 seconds (0.1 Hz) by depolarizing the cell membrane to −20 mV for 250 milliseconds (ms) from a holding potential of −120 mV.
Compounds were tested to determine their activity in blocking the late sodium current. Late INa was generated by adding 10 μM Tefluthrin (pyrethroid) to the extracellular solution. For the purposes of the screening, Late INa is defined as the mean current between 240 ms and 265 ms during the voltage step to −20 mV. After establishing the whole cell recording configuration, Late INa activator is added to each well 4 times over a 15 minute period so that the late component of the Na current reaches a stable value. Compounds were then added (typically at 0.3 or 1 μM), in the presence of the Late INa activator, with 3 additions over the course of 5 minutes. Measurements were made at the end of exposure to the third compound addition and values were normalized to the current level when all Na^+ was removed from the extracellular solution after two additions of 0Na-ECF.
Results are reported as percent block of late INa and results were analyzed by incorporating rundown correction for the Late INa.

| Structure (SMILES) | inhibition at 1 µM (hNaV1.2 (SCN2A)) [%] | inhibition at 10 µM (hNaV1.2 (SCN2A)) [%] | inhibition at 1 µM [1] [%] |
| --- | --- | --- | --- |
| Cc1cnc(CN2Cc3cc(-c4ccc(C(F)(F)F)cc4)ccc3OC2=O)nc1 [Example 13, 3-((5-methylpyrimidin-2-yl)methyl)-6-(4-(trifluoromethyl)phenyl)-3,4-dihydro-2H-benzo[e][1,3]oxazin-2-one] | 21.4 | 63.4 | 49.6 |
| Cc1cnc(CN2Cc3cc(-c4ccc(OC(F)(F)F)cc4F)ccc3OC2=O)nc1 [Example 14, 6-(2-fluoro-4-(trifluoromethoxy)phenyl)-3-((5-methylpyrimidin-2-yl)methyl)-3,4-dihydro-2H-benzo[e][1,3]oxazin-2-one] | < 5 | 59.9 | 39.3 |
| O=C1Oc2ccc(-c3ccc(OC(F)(F)F)cc3)cc2CN1CCc1ncccn1 [Example 16, 3-(2-(pyrimidin-2-yl)ethyl)-6-(4-(trifluoromethoxy)phenyl)-3,4-dihydro-2H-benzo[e][1,3]oxazin-2-one] | 23.4 | 52.9 | 48.5 |
| O=C1Oc2ccc(-c3ccc(C(F)(F)F)cc3)cc2CN1CCc1ncccn1 [Example 17, 3-(2-(pyrimidin-2-yl)ethyl)-6-(4-(trifluoromethyl)phenyl)-3,4-dihydro-2H-benzo[e][1,3]oxazin-2-one] | 34.2 | 56.6 | 45 |
| COc1cc(OC(F)(F)F)ccc1-c1ccc2c(c1)CN(CCc1ncccn1)C(=O)O2 [Example 18, 6-(2-methoxy-4-(trifluoromethoxy)phenyl)-3-(2-(pyrimidin-2-yl)ethyl)-3,4-dihydro-2H-benzo[e][1,3]oxazin-2-one] | 9.1 | 54.9 | 31.4 |
| CCCOc1cc(C(F)(F)F)ccc1-c1ccc2c(c1)CN(CCc1ncccn1)C(=O)O2 [Example 19, 6-(2-propoxy-4-(trifluoromethyl)phenyl)-3-(2-(pyrimidin-2-yl)ethyl)-3,4-dihydro-2H-benzo[e][1,3]oxazin-2-one] | 30.6 | 64 | 68 |
| O=C1Oc2ccc(-c3ccc(OC(F)(F)F)cc3)cc2CN1Cc1ccccn1 [Example 20, 3-(pyridin-2-ylmethyl)-6-(4-(trifluoromethoxy)phenyl)-3,4-dihydro-2H-benzo[e][1,3]oxazin-2-one] | 30.2 | 69.8 | 53.7 |
| O=C1Oc2ccc(-c3ccc(OC(F)(F)F)cc3F)cc2CN1Cc1ccccn1 [Example 21, 6-(2-fluoro-4-(trifluoromethoxy)phenyl)-3-(pyridin-2-ylmethyl)-3,4-dihydro-2H-benzo[e][1,3]oxazin-2-one] | < 5 | 59.4 | 44.7 |
| COc1cc(OC(F)(F)F)ccc1-c1ccc2c(c1)CN(Cc1ccccn1)C(=O)O2 [Example 22, 6-(2-methoxy-4-(trifluoromethoxy)phenyl)-3-(pyridin-2-ylmethyl)-3,4-dihydro-2H-benzo[e][1,3]oxazin-2-one] | < 5 | 55.6 | 48.3 |
| Cc1cc(OC(F)(F)F)ccc1-c1ccc2c(c1)CN(Cc1ccccn1)C(=O)O2 [Example 23, 6-(2-methyl-4-(trifluoromethoxy)phenyl)-3-(pyridin-2-ylmethyl)-3,4-dihydro-2H-benzo[e][1,3]oxazin-2-one] | < 5 | 56 | 30.5 |
| O=C1Oc2ccc(-c3ccc(C(F)(F)F)cc3)cc2CN1Cc1ccccn1 [Example 24, 3-(pyridin-2-ylmethyl)-6-(4-(trifluoromethyl)phenyl)-3,4-dihydro-2H-benzo[e][1,3]oxazin-2-one] | 32.7 | 71.4 | 55.8 |
| CC(C)Oc1cc(C(F)(F)F)ccc1-c1ccc2c(c1)CN(Cc1ncccn1)C(=O)O2 [Example 25, 6-(2-isopropoxy-4-(trifluoromethyl)phenyl)-3-(pyrimidin-2-ylmethyl)-3,4-dihydro-2H-benzo[e][1,3]oxazin-2-one] | 29.9 | 72.1 | 54 |
| O=C1Oc2ccc(-c3ccc4c(c3)OC(F)(F)O4)cc2CN1Cc1ncccn1 [Example 26, 6-(2,2-difluorobenzo[d][1,3]dioxol-5-yl)-3-(pyrimidin-2-ylmethyl)-3,4-dihydro-2H-benzo[e][1,3]oxazin-2-one] | 28 | 71.1 | 35.2 |
| CCCOc1cc(C(F)(F)F)ccc1-c1ccc2c(c1)CN(Cc1ncccn1)C(=O)O2 [Example 27, 6-(2-propoxy-4-(trifluoromethyl)phenyl)-3-(pyrimidin-2-ylmethyl)-3,4-dihydro-2H-benzo[e][1,3]oxazin-2-one] | 42.2 | 80.6 | 60.1 |
| CCCOc1cc(OC(F)(F)F)ccc1-c1ccc2c(c1)CN(Cc1ncccn1)C(=O)O2 [Example 28, 6-(2-propoxy-4-(trifluoromethoxy)phenyl)-3-(pyrimidin-2-ylmethyl)-3,4-dihydro-2H-benzo[e][1,3]oxazin-2-one] | 17.1 | 58 | 45.4 |
| Cc1ccnc(CN2Cc3cc(-c4ccc(OC(F)(F)F)cc4)ccc3OC2=O)n1 [Example 29, 3-((4-methylpyrimidin-2-yl)methyl)-6-(4-(trifluoromethoxy)phenyl)-3,4-dihydro-2H-benzo[e][1,3]oxazin-2-one] | 36.1 | 81.7 | 61.6 |
